Experimental data taken from patent publication US6372884B1, “Biologically active compounds and methods of constructing and using the same” (priority 1987, dated 2002).
Ends that are not written are not given here.

What was measured:
9B.G5 [1] = test: Competitive RIA: inhibition of 9B.G5 - 87.92.6 interaction; type: binding
Reo3R = test: Inhibition of 125I-labelled reovirus type 3 binding to the Reo3R on cells
Description: The cells were centrifuged and washed twice in 1% BSA/PBS/0.1% NaN3. 5×10^4 cells or 1.25×10^6 R1.1 cells in 50 μl were distributed in 2% BSA/PBS/NaN3 blocked RIA wells. For peptide studies, 50 μl of inhibitor was added in dH2O to the cells. Following a 30 minute incubation, L cells and ^125I-labelled reovirus type 3 were combined for an additional 30 minutes at 37° C. The cells were spun, washed three times in ice cold PBS, and specific CPM bound was determined as noted above. Percent inhibition of binding was calculated by the formulae above.
To further evaluate the interaction of VLC9C16 peptide with the Reo3R, the peptide was utilized to compete with ^125I-labelled reovirus type 3 for binding to the Reo3R.

[2] = Rate of loss of sulfhydryls on air oxidation (Ellman determination); type: physicochemical; settings: 2 mg/ml in 0.1 M NaHCO3, 37° C., exposed to air, FIG. 23
9B.G5 [3] = test: Solid phase RIA: binding of 9B.G5 to peptide coated plates; settings: FIG. 24
Description: RIA plates (Dynatech Laboratories, Alexandria, Va.) were coated with peptides by evaporation of varying amounts of peptides in distilled water overnight at 37° C. The wells were washed with PBS, blocked with 2% bovine serum albumin (BSA) in PBS with 0.1% NaN3, and washed with PBS. Partially purified 9BG5 [(NH4)2SO4 precipitate] was added at varying dilutions for greater than 1 hour at 37° C. The wells were washed in PBS and 50,000-100,000 counts per minute of ^125I-labelled goat anti-mouse light chain (anti-k & anti-[Sigma] iodinated by chloramine T) was added per well in 1% BSA in PBS for 1-2 hours at 37° C. The wells were decanted, washed extensively, and CPM bound determined. Specific CPM bound was determined by subtracting the CPM bound to uncoated wells from the CPM bound to peptide coated wells.
To assess the optimal conformation for binding of the VL peptide analogs, they were utilized to coat radioimmunoassay (RIA) plates, and 9B.G5 bound by standard RIA procedures.

[4] = system: reovirus type 3 receptor (Reo3R); test: Flow cytometry: inhibition of 87.92.6 binding to cells; set-up: species or system murine; settings: FIG. 29
Description: The ability of peptides to inhibit antibody binding to cells was determined by preincubation of the cells with varying amounts of inhibitor (in 100 μl dH2O) for between 30 minutes and 1 hour at 23° C. Cells (either L cells or R1.1 cells) were washed in 1% BSA/PBS/0.1% NaN3, and resuspended at 10^7/ml. 100 μl of cells were then added in 1% BSA/PBS/0.1% NaN3, and the incubation continued for 20-30 minutes. Antibodies (5 or 10 μl were added for an additional 20 minutes at 23° C. Ice cold 1% BSA/PBS/0.1% NaN3, was added, the cells centrifuged and washed prior to counterstaining with a 1:100 dilution of FITC goat anti-mouse Ig (Fisher Scientific) in 1% BSA/PBS/0.1% NaN3. The cells were washed twice and fluorescence intensity determined. Inhibition of binding was calculated as noted above with mean channel number utilized in place of CPM.
To assess the affinity of the cyclic peptides for the reovirus type 3 receptor (Reo3R), they were utilized in a series of assays to inhibit binding of 87.92.6 or control antibodies to specific receptors. […] The inhibition by VLC9C16 peptide was specific as binding of isotype matched monoclonal H013.4 to Thy2 molecules was not inhibited by VLC9C16 peptide (FIG. 30). Thus, VLC9C16 peptide is a specific Reo3R ligand with enhanced affinity compared with its linear analog.

[5] = Size-exclusion chromatography of oxidized peptides (Sephadex G-10); type: physicochemical; settings: reduced versus non-reduced peptides
9B.G5 [6] = test: Competitive RIA: inhibition of 9B.G5 - reovirus type 3 interaction; type: binding
Thy2 molecules = target: T1, Thy2 molecules (Mus musculus, UniProt P01831); test: Flow cytometry: inhibition of H013.4 binding (specificity); set-up: species or system murine; settings: FIG. 30
T1 sequence (P01831 20-131): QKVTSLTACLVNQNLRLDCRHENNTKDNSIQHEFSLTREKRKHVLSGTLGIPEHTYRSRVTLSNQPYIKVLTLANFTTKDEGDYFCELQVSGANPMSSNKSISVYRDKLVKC

Sequence: KPGKTNKLCIYSGSTCQ (cysteine pairing not given here) [VLC9C16 peptide]
- increase in binding affinity for 9B.G5 compared with linear analog of VL peptide (9B.G5 [1]; inhibition of 9B.G5 - 87.92.6 interaction, FIG. 26): 40 fold
- inhibition of 9B.G5 - 87.92.6 interaction (9B.G5 [1]; liquid phase assay, FIGS. 25 and 26): higher affinity of interaction compared with the other cyclic peptide variants
- affinity for the Reo3R by competition with 125I-labelled reovirus type 3 (Reo3R; FIG. 31): higher affinity for the Reo3R than VLC8C16 peptide or VLC10C16 peptide
- increase in affinity for the Reo3R compared with linear VL peptide (Reo3R; competition with 125I-labelled reovirus type 3): 40 fold
- rate of loss of sulfhydryls [2]: most rapid loss of sulfhydryls
- binding of 9B.G5 to peptide on solid phase RIA (9B.G5 [3]): higher than binding to the other cyclic VL peptide analogs
- inhibition of binding of 87.92.6 to murine L cells ([4]; L cells): inhibited binding
- inhibition of binding of 87.92.6 to R1.1 thymoma cells ([4]; R1.1 cells): inhibited binding
- molecular form following oxidation by size-exclusion chromatography [5]: remained chiefly as monomers
- inhibition of binding of 125I-labelled reovirus type 3 to 9B.G5, compared with other cyclic peptides (9B.G5 [6]; FIG. 27): higher affinity than the other cyclic peptides
- inhibition of binding of 125I-labelled reovirus type 3 to 9B.G5, compared with linear VL and dimeric VLSH peptide (9B.G5 [6]; FIG. 28): higher affinity than linear VL peptide, and similar affinity on a molar basis as dimeric VLSH peptide
- inhibition of binding of isotype matched monoclonal H013.4 (Thy2 molecules): not inhibited
